This note sets out measurements from patent US20150094294A1, “COMPOUNDS AND METHODS FOR TREATING MALARIA” (Cellceutix Corporation, priority 2012, published 2015).

≈ marks a conversion by molar mass, not a printed value.

What all share (assay type): cell-based
Data set [1] in a line: Cytotoxicity against HepG2 cells. To be noted: human.
The test system of data set [2] is P. falciparum 3D7 (chloroquine-sensitive). The data set can be described thus: Anti-malarial activity, P. falciparum 3D7 culture, 72 hour, DNA content by flow cytometry. The conditions noted are these: Plasmodium falciparum, 3D7, 72 h, synchronized ring-stage parasites. As to the method: Numerous compounds were screened in cultures of the malaria parasite P. falciparum 3D7 (chloroquine-sensitive) and DD2 (chloroquine-resistant). The compounds were also screened for toxixcity against 3T3 cells, HepG2 cells, and in a hemolysis assay. In brief, P. falciparum parasites were cultured in RPMI 1640 (Invitrogen) supplemented with Albumax II (Invitrogen). For synchronization, schizont stage parasites were magnet purified using a SuperMACS™ II Cell Separation Unit (Miltenyi Biotech). For IC50 determinations, synchronized ring-stage parasites were plated at 0.5% parasitemia and 8% hematocrit in 96-well plates at a total volume of 50 μL. Serial dilutions of 2× concentration of the respective compound, ranging from 2.5 μM to 20 nM, were added to the wells to bring the total volume up to 100 μL and 4% hematocrit. Compounds were assayed for a 72 hour period, after which the cultures were fixed with a solution of 4% paraformaldehyde and 0.08% glutaraldhyde in PBS. The cells were then permeabilized with 0.25% Triton X-100, and SYTOX Green Nucleic Acid Stain (Invitrogen) in PBS was added to a final concentration of 5 μM. DNA content, as an indicator of parasitemia, was analyzed on an Accuri C6 Flow Cytometer with C-Sampler. IC50 curves were generated using GraphPad Prism (GraphPad Software).

The next data set in a line: in vitro.
A short description of data set [3]: Cytotoxicity against 3T3 cells. To be noted: mouse.
The mark [4] stands for this setting: HepG2 cells, read-out: Cytotoxicity HepG2 EC50.
The mark [5] stands for this setting: 3T3 cells, read-out: Cytotoxicity 3T3 EC50.

Take `N=C(N)NCCCc1cccc(-c2cncc(-c3cccc(CCCNC(=N)N)c3)c2)c1` [Compound 132]: the concentration giving a half-maximal response (EC50) (commonly the concentration giving half of the maximal effect) was 456 µM in data set [1] (setting [4]), above 1000 µg/mL in the data set “in vitro” and 323 µM in data set [3] (setting [5]). It took 112 nM to reach half-maximal inhibition in data set [2] (IC50).
The matching figures for `N=C(N)NCCc1cccc(-c2cncc(-c3cccc(CCNC(=N)N)c3)c2)c1` [Compound 134]: 905 µM, above 1000 µg/mL, 654 µM and 126 nM.
The matching figures for `N=C(N)NCCC#Cc1cncc(-c2cccc(-c3cncc(C#CCCNC(=N)N)c3)c2)c1` [Compound 137]: 422 µM, above 1000 µg/mL, 272 µM and 187 nM.
Turning to `N=C(N)NCCCCCC(=O)Nc1cccc(-c2cc(-c3ccc(NC(=O)CCCCNC(=N)N)cc3)nc(-c3ccccc3)n2)c1` [Compound 139], the EC50 in data set [1] (setting [4]) was 23 µM; in data set [3] (setting [5]), 36 µM. In addition, in data set [2], it took 430 nM to reach half-maximal inhibition (IC50).
As for `N=C(N)NCCCOc1cc(OCCCNC(=N)N)c(-c2ccncc2)cc1-c1ccncc1` [Compound 140], the EC50 in data set [1] (setting [4]) is above 1450 µM; in “in vitro” it was above 1000 µg/mL; in data set [3] (setting [5]), above 1450 µM. Besides, the IC50 – broadly, the midpoint of a concentration-inhibition curve – in data set [2] is 602 nM.
Take `NCCC#Cc1cncc(-c2cccc(-c3cncc(C#CCCN)c3)c2)c1` [Compound 142]: the figures for the EC50 (in data set [1] (setting [4]); in the data set “in vitro”; in data set [3] (setting [5])) were 594 µM, 538 µg/mL (≈ 1470 µM) and 229 µM, respectively. This compound also gave an IC50 in data set [2] of 795 nM.
Turning to `NCCCOc1cccc(-n2cc(-c3ccc4ccc(-c5cn(-c6cccc(OCCCN)c6)nn5)cc4c3)nn2)c1` [Compound 152], the EC50 in data set [1] (setting [4]) worked out at 502 µM; in “in vitro”, 0.8 µg/mL (≈ 1.43 µM); in data set [3] (setting [5]) it was 406 µM. Besides, in data set [2], the half-maximal inhibitory concentration (IC50) came out at 88.3 nM.
As to `N=C(N)N1CCN(c2ccc(-c3cc(-c4ccc(N5CCN(C(=N)N)CC5)cc4)ncn3)cc2)CC1` [Compound 153], the EC50 in data set [1] (setting [4]) is 453 µM; in the data set “in vitro”, 116 µg/mL (≈ 239 µM); in data set [3] (setting [5]) it was 311 µM. In addition, in data set [2], half-maximal inhibition (IC50) required 77.1 nM.
The matching figures for `c1nc(-c2ccc(N3CCNCC3)cc2)cc(-c2ccc(N3CCNCC3)cc2)n1` [Compound 154]: 471 µM, 352 µg/mL (≈ 879 µM), 210 µM and 473 nM.
The matching figures for `NCc1ccc(C(F)(F)F)c(Oc2ccc(S(=O)(=O)c3ccc(Oc4cc(CN)ccc4C(F)(F)F)cc3)cc2)c1` [Compound 156]: 50 µM, 9 µg/mL (≈ 15.1 µM), 25 µM and 258 nM.
The matching figures for `N=C(N)NCCCCC(=O)Nc1cc(C(F)(F)F)cc(NC(=O)c2cc(C(=O)Nc3cc(C(F)(F)F)cc(NC(=O)CCCCNC(=N)N)c3SCCNC(=O)CN)ncn2)c1SCCNC(=O)CN` [Compound 160]: 224 µM, 250 µg/mL (≈ 242 µM), 66 µM and 925 nM.
Take `N=C(N)NCCCCC(=O)Nc1cccc(NC(=O)c2cc(C(=O)Nc3cccc(NC(=O)CCCCNC(=N)N)c3SCCN)ncn2)c1SCCN` [Compound 161]: the values for the EC50 in data set [1] (setting [4]) and in data set [3] (setting [5]) were 676 µM and 697 µM, respectively. In addition, the IC50 in data set [2] stood at 939 nM.
For `O=S(=O)(c1ccc(Oc2cc(NC3CCNCC3)cc(C(F)(F)F)c2)cc1)c1ccc(Oc2cc(NC3CCNCC3)cc(C(F)(F)F)c2)cc1` [Compound 163], the EC50 in data set [1] (setting [4]) came out at 98 µM; in data set [3] (setting [5]), 60 µM.
For the compound `N=C(N)NCCc1ccc(C(F)(F)F)cc1NC(=O)c1cc(C(=O)Nc2cc(C(F)(F)F)ccc2CCNC(=N)N)ncn1` [Compound 176], the EC50 was 608 µM in data set [1] (setting [4]), 314 µg/mL (≈ 503 µM) in “in vitro” and 523 µM in data set [3] (setting [5]). In data set [2], this compound registered a half-maximal inhibitory concentration (IC50) of 629 nM.
As to `NCCCOc1cccc(-n2cc(-c3cccc(-c4cn(-c5cccc(OCCCN)c5)nn4)c3)nn2)c1` [Compound 180], the EC50 in data set [1] (setting [4]) came out at 78 µM; in “in vitro” it was 63 µg/mL (≈ 123 µM); in data set [3] (setting [5]), 40 µM. The midpoint of inhibition in data set [2], the IC50, lay at 641 nM.
As for `CN1CCN(c2ccc(NC(=O)c3cc(C(=O)Nc4ccc(N5CCN(C)CC5)cc4)ncn3)cc2)CC1` [Compound 212], the EC50 in data set [1] (setting [4]) and in data set [3] (setting [5]) was above 1000 µM throughout. Also, the 50% inhibitory concentration (IC50) in data set [2] is above 100 nM.
Consider `N=C(N)N1CC=C(c2ccc(NC(=O)c3cc(C(=O)Nc4ccc(C5=CCN(C(=N)N)CC5)cc4)ncn3)cc2)CC1` [Compound 219], for which the figures for the EC50 in data set [1] (setting [4]) and in data set [3] (setting [5]) were above 1000 µM and 919 µM, respectively.
For `CN1CCN(c2ccc(-c3cc(-c4ccc(N5CCN(C)CC5)cc4)ncn3)cc2)CC1` [Compound 278], the EC50 in data set [1] (setting [4]) and in data set [3] (setting [5]) was above 1000 µM each time. In data set [2], this compound yielded an IC50 above 100 nM.
With `NCCCn1c2ccc(C3=CCNCC3)cc2c2cc(C3=CCNCC3)ccc21` [Compound 288], the EC50 was above 1000 µM in data set [1]; above 1000 µg/mL in “in vitro” (hemolysis assay, read-out: Cytotoxicity Hemolysis EC50); above 1000 µM in data set [3].
Consider `N=C(N)NCCCn1c2ccc(C3=CCNCC3)cc2c2cc(C3=CCNCC3)ccc21` [Compound 290], for which the EC50 in data set [1] and in data set [3] was above 1000 µM throughout. This compound also gave an IC50 in data set [2] above 100 nM.
Take `N=C(N)N1CCN(c2ccc3sc4ccc(N5CCN(C(=N)N)CC5)cc4c3c2)CC1` [Compound 292]: the EC50 in data set [1] (setting [4]) was above 1000 µM; in data set [3] (setting [5]), 710 µM. In addition, the IC50 in data set [2] is 88 nM.
`CCn1c2ccc(N3CCN(C(=N)N)CC3)cc2c2cc(N3CCN(C(=N)N)CC3)ccc21` [Compound 294]: the EC50 in data set [1] (setting [4]) and in data set [3] (setting [5]) was above 1000 µM throughout. This compound displayed an IC50 in data set [2] above 100 nM.
As to `COc1cc(OC)c(C(=O)Nc2cc(C(F)(F)F)cc(NC(=O)c3cccc(C#N)c3)c2SCCN)cc1C(=O)Nc1cc(C(F)(F)F)cc(NC(=O)c2cccc(C#N)c2)c1SCCN` [Compound 300], the EC50 in data set [1] (setting [4]) and in data set [3] (setting [5]) was 848 µM throughout.
`COc1cccc(C(=O)Nc2cc(C(F)(F)F)cc(NC(=O)c3cc(C(=O)Nc4cc(C(F)(F)F)cc(NC(=O)c5cccc(OC)c5)c4SCCN)ncn3)c2SCCN)c1` [Compound 309]: the EC50 in data set [1] (setting [4]) and in data set [3] (setting [5]) was above 1000 µM each time. For the same compound, in data set [2], inhibition was half-maximal at 79 nM (IC50).
For the compound `COc1ccc(C(=O)Nc2cc(C(F)(F)F)cc(NC(=O)c3cc(C(=O)Nc4cc(C(F)(F)F)cc(NC(=O)c5ccc(OC)c(OC)c5)c4SCCN)ncn3)c2SCCN)cc1OC` [Compound 312], the 50% effective concentration (EC50) in data set [1] (setting [4]) is above 1000 µM; in “in vitro”, 6 µg/mL (≈ 6.23 µM); in data set [3] (setting [5]), above 10000 µM.
The matching figures for `COc1ccc(C(=O)Nc2cc(C(F)(F)F)cc(NC(=O)c3cc(C(=O)Nc4cc(C(F)(F)F)cc(N)c4SCCN)ncn3)c2SCCN)cc1OC` [Compound 313]: 545 µM, 14 µg/mL (≈ 17.5 µM) and 92 µM.
Turning to `NCCSc1c(NC(=O)c2cc(C(=O)Nc3cc(C(F)(F)F)cc(NC(=O)c4ccc(Cl)cc4Cl)c3SCCN)ncn2)cc(C(F)(F)F)cc1NC(=O)c1ccc(Cl)cc1Cl` [Compound 314], the EC50 in data set [1] (setting [4]) was 827 µM; in data set [3] (setting [5]) it was above 1000 µM.
With `NCCSc1c(N)cc(C(F)(F)F)cc1NC(=O)c1cc(C(=O)Nc2cc(C(F)(F)F)cc(NC(=O)c3cccnc3)c2SCCN)ncn1` [Compound 316], the EC50 in data set [1] (setting [4]) came out at 41 µM; in the data set “in vitro”, 22 µg/mL (≈ 29.7 µM); in data set [3] (setting [5]) it was 33 µM.
